Measurements published in patent US8232070B2, “DNP63A gene and screening methods of anticancer agent by using it” (Seoul National University Industry Foundation, priority 2007, dated 2012).
Peptide text beside a SMILES is read from it. * marks the point of attachment. Cbz = O=C(OCc1ccccc1)*

Legend:
ΔNp63α [1] = experiment: ΔNp63α protein amount and stability in ME180 carcinoma cells after TNF-α treatment (cyclohexamide chase, FIG. 1); assay type: cell-based
Description: After TNF-α treatment for 16 hours, cyclohexamide which inhibit protein synthesis was added and the samples were obtained at the indicated time-points and observed for changes of protein stability. As a result, the protein degradation began after 4 hours of treatment with cyclohexamide.
Previously, ME180, ΔNp63α overexpressing carcinoma, was treated with TNF-α (tumor necrosis factor-alpha) which induces cell death. Also, the changes of the amount of ΔNp63α protein were observed. […] It is identified that such degradation of ΔNp63α was proceeded by specific mechanism, that is, by proteasome-mediated mechanism (FIG. 1). Protein degradation pathways could be usually classified in large into two groups, the first one is a degradation pathway by a protease after its polyubiquitination and movement to proteases, and the other one is a degradation pathway by a caspases.

ΔNp63α [2] = experiment: Intracellular location of GFP-fused ΔNp63α in transformed ME180 cells, fluorescence microscopy (FIG. 2); assay type: cell-based; settings: ME180 transformed with pEGFP-ΔNp63α
Description: The recombinant vector constructed by the present inventor had fused ΔNp63α next to pEGFP-C1. The advantage of GFP is to observe easily in microscopy because GFP emit the green light at the specific absorbance (Excitation maximum=488 nm; emission maximum=507 nm). […] GFP is inherently expressed all over the area of cell, however, it was identified that GFP expression was observed only in the nucleus after GFP fused with ΔNp63α.
As a signal of cell death induction, the intracellular location and expression patterns of ΔNp63α were observed. In detail, it was observed variation aspect and cell location of ΔNp63α with a time span, 0 hr, 1 hr, 2 hr and 4 hr with fluorescence microscope, after cloning ΔNp63α gene into the vector expressing Green Fluorescence Protein (GFP), expressing for a certain time by transformation into carcinoma cell, treating TNF-α which induce cell death, carcinoma cells being transformed and then the protein being expressed for a certain time. As a result, it was observed similar aspect of aggreasome, which looks like complex of preteasome, because ΔNp63α, which had been known to locate only in nucleus, moved from nucleus to cytoplasm about 2 hr after treatment of TNF-α (FIG. 2). […]

| Compound | ΔNp63α protein degradation with proteasome inhibitor co-treatment (ΔNp63α [1]; MG132 20 nM together with cyclohexamide after TNF-α treatment for 16 hours) | amount of ΔNp63α protein after treatment (ΔNp63α [1]; ME180 cells, ΔNp63α overexpressing carcinoma) | time at which ΔNp63α protein degradation began after addition of cyclohexamide (ΔNp63α [1]; TNF-α treatment for 16 hours, then cyclohexamide added) [h] | change of ΔNp63α protein location after treatment (ΔNp63α [2]) | time at which ΔNp63α moved from nucleus to cytoplasm after treatment (ΔNp63α [2]; observed at 0 hr, 1 hr, 2 hr and 4 hr) |
| --- | --- | --- | --- | --- | --- |
| CC(C)C[C@@H](C=O)NC(=O)[C@H](CC(C)C)NC(=O)[C@H](CC(C)C)NC(=O)OCc1ccccc1 [MG132, reference compound] (Cbz-Leu-Leu-Leu-aldehyde) | wasn't degraded and stabilized even after 4 hours |  |  |  |  |
| TNF-α |  | decreased rapidly | 4 | from the nucleus to the cytoplasm | about 2 hr |
